Assay results published in PubChem BioAssay (NCI).
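Step 1: Grow cells in 96-well plates. Step 2: Expose to compound for 48 hours at 5 concentrations. Step 3: Interpolate endpoints linearly; if unreached, use highest concentration. At the GI50, growth is halved. TGI: concentration producing complete growth inhibition.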

How the values were obtained:
Experiment in all cases: DTP human tumour cell line panel, 48 h
CCRF-CEM leukemia = tested on: CCRF-CEM leukemia
SW-620 colon = tested on: SW-620 colon
IGROV1 ovarian = tested on: IGROV1 ovarian
NCI-H522 lung = tested on: NCI-H522 lung
SN12C renal = tested on: SN12C renal
SF-295 CNS = tested on: SF-295 CNS
T-47D breast = tested on: T-47D breast
HS 578T breast = tested on: HS 578T breast
PC-3 prostate = tested on: PC-3 prostate
RXF 393 renal = tested on: RXF 393 renal
SK-MEL-28 melanoma = tested on: SK-MEL-28 melanoma
HOP-92 NSCLC = tested on: HOP-92 NSCLC
SR leukemia = tested on: SR leukemia
MOLT-4 leukemia = tested on: MOLT-4 leukemia
A549 NSCLC = tested on: A549 NSCLC
HCT-116 colon = tested on: HCT-116 colon
CAKI-1 renal = tested on: CAKI-1 renal
DU-145 prostate = tested on: DU-145 prostate
MDA-MB-435 = tested on: MDA-MB-435
HT29 colon = tested on: HT29 colon
MALME-3M melanoma = tested on: MALME-3M melanoma
A498 renal = tested on: A498 renal
OVCAR-8 ovarian = tested on: OVCAR-8 ovarian
UACC-257 melanoma = tested on: UACC-257 melanoma
ACHN renal = tested on: ACHN renal
SK-MEL-2 melanoma = tested on: SK-MEL-2 melanoma
SNB-75 CNS = tested on: SNB-75 CNS
HCT-15 colon = tested on: HCT-15 colon
TK-10 renal = tested on: TK-10 renal
LOX IMVI melanoma = tested on: LOX IMVI melanoma
UACC-62 melanoma = tested on: UACC-62 melanoma
MCF7 breast = tested on: MCF7 breast
786-0 renal = tested on: 786-0 renal
SK-OV-3 ovarian = tested on: SK-OV-3 ovarian
K-562 leukemia = tested on: K-562 leukemia
BT-549 breast = tested on: BT-549 breast
SF-539 CNS = tested on: SF-539 CNS
NCI-H226 lung = tested on: NCI-H226 lung
OVCAR-3 ovarian = tested on: OVCAR-3 ovarian
SF-268 CNS = tested on: SF-268 CNS
UO-31 renal = tested on: UO-31 renal
OVCAR-5 ovarian = tested on: OVCAR-5 ovarian
M14 melanoma = tested on: M14 melanoma
SK-MEL-5 melanoma = tested on: SK-MEL-5 melanoma
RPMI-8226 leukemia = tested on: RPMI-8226 leukemia
NCI-H23 lung = tested on: NCI-H23 lung
NCI-H460 lung = tested on: NCI-H460 lung
OVCAR-4 ovarian = tested on: OVCAR-4 ovarian
COLO 205 colon = tested on: COLO 205 colon
KM12 colon = tested on: KM12 colon
HOP-62 NSCLC = tested on: HOP-62 NSCLC
HCC-2998 colon = tested on: HCC-2998 colon
MDA-MB-468 breast = tested on: MDA-MB-468 breast
EKVX NSCLC = tested on: EKVX NSCLC
MDA-MB-231 breast = tested on: MDA-MB-231 breast
U251 CNS = tested on: U251 CNS
SNB-19 CNS = tested on: SNB-19 CNS
HL-60(TB) leukemia = tested on: HL-60(TB) leukemia
NCI/ADR-RES ovarian = tested on: NCI/ADR-RES ovarian

Structure (SMILES): CC(C)(C)c1cc(/C=C2\S/C(=N/c3ncn[nH]3)NC2=O)cc(C(C)(C)C)c1O
- GI50 (CCRF-CEM leukemia): 0.706 µM
- TGI (CCRF-CEM leukemia): 6.5 µM
- GI50 (SW-620 colon): 2.13 µM
- TGI (SW-620 colon): 13.7 µM
- GI50 (IGROV1 ovarian): 2.04 µM
- TGI (IGROV1 ovarian): 14.7 µM
- GI50 (NCI-H522 lung): 3.78 µM
- TGI (NCI-H522 lung): 17.9 µM
- GI50 (SN12C renal): 2.08 µM
- TGI (SN12C renal): 13.3 µM
- GI50 (SF-295 CNS): 0.593 µM
- TGI (SF-295 CNS): 12.7 µM
- GI50 (T-47D breast): 2.29 µM
- TGI (T-47D breast): 44.4 µM
- GI50 (HS 578T breast): 2.37 µM
- TGI (HS 578T breast): 8.47 µM
- GI50 (PC-3 prostate): 0.762 µM
- TGI (PC-3 prostate): 22.1 µM
- GI50 (RXF 393 renal): 2.03 µM
- TGI (RXF 393 renal): 8.35 µM
- GI50 (SK-MEL-28 melanoma): 2.93 µM
- TGI (SK-MEL-28 melanoma): 14.4 µM
- GI50 (HOP-92 NSCLC): 1.72 µM
- TGI (HOP-92 NSCLC): 13.4 µM
- GI50 (SR leukemia): 0.935 µM
- TGI (SR leukemia): 29.8 µM
- GI50 (MOLT-4 leukemia): 1.16 µM
- TGI (MOLT-4 leukemia): 13.7 µM
- GI50 (A549 NSCLC): 1.12 µM
- TGI (A549 NSCLC): 13.8 µM
- GI50 (HCT-116 colon): 0.978 µM
- TGI (HCT-116 colon): 11.1 µM
- GI50 (CAKI-1 renal): 1.37 µM
- TGI (CAKI-1 renal): 16.7 µM
- GI50 (DU-145 prostate): 2.53 µM
- TGI (DU-145 prostate): 21.5 µM
- GI50 (MDA-MB-435): 2.77 µM
- TGI (MDA-MB-435): 14.9 µM
- GI50 (HT29 colon): 3.03 µM
- TGI (HT29 colon): 19.4 µM
- GI50 (MALME-3M melanoma): 3.74 µM
- TGI (MALME-3M melanoma): 18.9 µM
- GI50 (A498 renal): 1.77 µM
- TGI (A498 renal): 10.5 µM
- GI50 (OVCAR-8 ovarian): 1.76 µM
- TGI (OVCAR-8 ovarian): 14.3 µM
- GI50 (UACC-257 melanoma): 3.85 µM
- TGI (UACC-257 melanoma): 16.7 µM
- GI50 (ACHN renal): 0.691 µM
- TGI (ACHN renal): 12.6 µM
- GI50 (SK-MEL-2 melanoma): 2.63 µM
- TGI (SK-MEL-2 melanoma): 15.9 µM
- GI50 (SNB-75 CNS): 2.34 µM
- TGI (SNB-75 CNS): 13.6 µM
- GI50 (HCT-15 colon): 0.455 µM
- TGI (HCT-15 colon): 12.8 µM
- GI50 (TK-10 renal): 4.82 µM
- TGI (TK-10 renal): 20.2 µM
- GI50 (LOX IMVI melanoma): 0.71 µM
- TGI (LOX IMVI melanoma): 12.7 µM
- GI50 (UACC-62 melanoma): 2.28 µM
- TGI (UACC-62 melanoma): 11.8 µM
- GI50 (MCF7 breast): 1.83 µM
- TGI (MCF7 breast): 13 µM
- GI50 (786-0 renal): 2.95 µM
- TGI (786-0 renal): 13.3 µM
- GI50 (SK-OV-3 ovarian): 4.83 µM
- TGI (SK-OV-3 ovarian): 20.5 µM
- GI50 (K-562 leukemia): 1.44 µM
- TGI (K-562 leukemia): 54.3 µM
- GI50 (BT-549 breast): 2.31 µM
- TGI (BT-549 breast): 11.8 µM
- GI50 (SF-539 CNS): 2.89 µM
- TGI (SF-539 CNS): 12.6 µM
- GI50 (NCI-H226 lung): 1.8 µM
- TGI (NCI-H226 lung): 14.3 µM
- GI50 (OVCAR-3 ovarian): 2.4 µM
- TGI (OVCAR-3 ovarian): 15.2 µM
- GI50 (SF-268 CNS): 2.61 µM
- TGI (SF-268 CNS): 16.6 µM
- GI50 (UO-31 renal): 0.882 µM
- TGI (UO-31 renal): 12.3 µM
- GI50 (OVCAR-5 ovarian): 4.52 µM
- TGI (OVCAR-5 ovarian): 17.7 µM
- GI50 (M14 melanoma): 1.98 µM
- TGI (M14 melanoma): 16.3 µM
- GI50 (SK-MEL-5 melanoma): 1.36 µM
- TGI (SK-MEL-5 melanoma): 9.78 µM
- GI50 (RPMI-8226 leukemia): 2.6 µM
- TGI (RPMI-8226 leukemia): 33.8 µM
- GI50 (NCI-H23 lung): 2.45 µM
- TGI (NCI-H23 lung): 17.3 µM
- GI50 (NCI-H460 lung): 0.402 µM
- TGI (NCI-H460 lung): 10.1 µM
- GI50 (OVCAR-4 ovarian): 2.31 µM
- TGI (OVCAR-4 ovarian): 16.3 µM
- GI50 (COLO 205 colon): 1.99 µM
- TGI (COLO 205 colon): 12.8 µM
- GI50 (KM12 colon): 3.79 µM
- TGI (KM12 colon): 17 µM
- GI50 (HOP-62 NSCLC): 0.999 µM
- TGI (HOP-62 NSCLC): 18.7 µM
- GI50 (HCC-2998 colon): 3.23 µM
- TGI (HCC-2998 colon): 16.9 µM
- GI50 (MDA-MB-468 breast): 2.75 µM
- TGI (MDA-MB-468 breast): 15.5 µM
- GI50 (EKVX NSCLC): 2.15 µM
- TGI (EKVX NSCLC): 12.1 µM
- GI50 (MDA-MB-231 breast): 2.91 µM
- TGI (MDA-MB-231 breast): 14.8 µM
- GI50 (U251 CNS): 0.801 µM
- TGI (U251 CNS): 7.9 µM
- GI50 (SNB-19 CNS): 1.5 µM
- TGI (SNB-19 CNS): 12.9 µM
- GI50 (HL-60(TB) leukemia): 2.73 µM
- TGI (HL-60(TB) leukemia): 18 µM
- GI50 (NCI/ADR-RES ovarian): 0.472 µM
- TGI (NCI/ADR-RES ovarian): 14.4 µM
